Legend:
Zika virus = experiment: EC50 is reported via analysis of immunofluorescence staining. The assay has been performed by Icahn School of Medicine at Mount Sinai.; format: functional, organism-based, Chlorocebus sabaeus, VeroE6/TMPRSS2
dengue virus type 2 = experiment: Functional immunofluorescence assay to measure dose dependent changes in antiviral-drug inhibitory efficacy against Dengue virus type 2 Thailand/16681/84 in Vero E6/TMPRSS2 cells (cotreated with P-gp inhibitor, Elacridar). Cells are treated with antiviral candidates that are serially diluted, following infection, cells are fixed. EC50 is reported via analysis of immunofluorescence staining. The assay has been performed by Icahn School of Medicine at Mount Sinai.; format: organism-based, Chlorocebus sabaeus, VeroE6/TMPRSS2

Work on `NCc1cccc(NC(=O)c2cc(Cl)cc3c2CCC3)c1` yielded an EC50 (Zika virus; Zika virus, VeroE6/TMPRSS2) of over 16.7 µM, an EC90 (Zika virus; Zika virus, VeroE6/TMPRSS2, Maximum measured 83.197 %, Minimum measured 51.618 %, P-gp concentration 2 uM, P-gp inhibitor Elacidar) of over 16.7 µM and an EC50 (dengue virus type 2; Dengue virus, VeroE6/TMPRSS2) of over 10 µM. It also gave an EC90 (dengue virus type 2; Dengue virus, VeroE6/TMPRSS2, Maximum measured 223.993 %, Minimum measured 74.273 %, P-gp concentration 2 uM, P-gp inhibitor Elacidar) of over 16.7 µM, an EC90 (dengue virus type 2; Dengue virus, VeroE6/TMPRSS2, Baseline response 0 %, Hill slope 0.162, Maximum measured 165.889 %, Maximum response 100 %, Minimum measured 52.995 %, P-gp concentration 2 uM, R squared 0.068, P-gp inhibitor Elacidar) of over 10 µM and an EC50 (dengue virus type 2; veroe6/tmprss2) of over 16.7 µM.

With `Cc1ccc(-c2nnn[nH]2)cc1NC(=O)c1cc(Cl)cc(NC(=O)OCc2ccccc2)c1` the EC50 (Zika virus; Zika virus, VeroE6/TMPRSS2) was over 16.7 µM, the EC90 (Zika virus; Zika virus, VeroE6/TMPRSS2, Maximum measured 182.406 %, Minimum measured 123.883 %, P-gp concentration 2 uM, P-gp inhibitor Elacidar) was over 16.7 µM and the EC50 (dengue virus type 2; Dengue virus, VeroE6/TMPRSS2) was 40.5 µM. It also gave an EC90 (dengue virus type 2; Dengue virus, VeroE6/TMPRSS2, Baseline response 0 %, Hill slope -16.355, Maximum measured 369.361 %, Maximum response 277.036 %, Minimum measured 8.558 %, P-gp concentration 2 uM, R squared 0.765, P-gp inhibitor Elacidar) of 46.3 µM.

`NCc1cccc(NC(=O)c2cc(Cl)cc(N3CCCC3=O)c2)c1` showed an EC90 (Zika virus; Baseline response 0 %, Hill slope 0.118, Maximum measured 129.177 %, Maximum response 100 %, Minimum measured 53.613 %, P-gp concentration 2 uM, R squared 0.041, P-gp inhibitor Elacidar) of over 10 µM, an EC90 (Zika virus; Baseline response 0 %, Hill slope -0.203, Maximum measured 140.608 %, Maximum response 100 %, Minimum measured 78.837 %, P-gp concentration 2 uM, R squared 0.028, P-gp inhibitor Elacidar) of over 50 µM and an EC50 (Zika virus; veroe6/tmprss2) of over 50 µM. The EC90 (dengue virus type 2; Dengue virus, VeroE6/TMPRSS2, Maximum measured 120.219 %, Minimum measured 55.49 %, P-gp concentration 2 uM, P-gp inhibitor Elacidar) was over 10 µM, the EC90 (dengue virus type 2; Dengue virus, VeroE6/TMPRSS2, Baseline response 0 %, Hill slope 0.068, Maximum measured 98.172 %, Maximum response 100 %, Minimum measured 58.193 %, P-gp concentration 2 uM, R squared 0.052, P-gp inhibitor Elacidar) was over 50 µM and the EC50 (dengue virus type 2; veroe6/tmprss2) was over 50 µM.

`O=S(=O)(Nc1cccc(-c2nnn[nH]2)c1)c1cc(Cl)cc(-c2ccccc2)c1` gave an EC50 (Zika virus; Zika virus, VeroE6/TMPRSS2) of over 50 µM, an EC90 (Zika virus; Zika virus, VeroE6/TMPRSS2, Maximum measured 155.311 %, Minimum measured 93.761 %, P-gp concentration 2 uM, P-gp inhibitor Elacidar) of over 50 µM and an EC50 (dengue virus type 2; Dengue virus, VeroE6/TMPRSS2) of 0.611 µM. It also gave an EC90 (dengue virus type 2; Dengue virus, VeroE6/TMPRSS2, Baseline response 0 %, Hill slope -0.304, Maximum measured 103.918 %, Maximum response 100 %, Minimum measured 7.141 %, P-gp concentration 2 uM, R squared 0.457, P-gp inhibitor Elacidar) of over 50 µM.

In the case of `O=C(Nc1cc(Cl)cc(C(=O)Nc2cccc([C@H]3CCNC3)c2)c1)OCc1ccccc1`, the EC50 (Zika virus; Zika virus, VeroE6/TMPRSS2) is reported as 42.7 µM, the EC90 (Zika virus; Zika virus, VeroE6/TMPRSS2, Baseline response 0 %, Hill slope -21.619, Maximum measured 167.541 %, Maximum response 100 %, Minimum measured 3.263 %, P-gp concentration 2 uM, R squared 0.234, P-gp inhibitor Elacidar) is reported as 47.3 µM and the EC50 (dengue virus type 2; Dengue virus, VeroE6/TMPRSS2) is reported as over 5.56 µM. The EC90 (dengue virus type 2; Dengue virus, VeroE6/TMPRSS2, Maximum measured 260.488 %, Minimum measured 106.051 %, P-gp concentration 2 uM, P-gp inhibitor Elacidar) was over 5.56 µM.

`O=C(Nc1ccc2c(c1)CNC2)c1cc(Br)cc2[nH]c(C3CCOCC3)nc12` showed an EC50 (Zika virus; Zika virus, VeroE6/TMPRSS2) of over 5.56 µM, an EC90 (Zika virus; Zika virus, VeroE6/TMPRSS2, Maximum measured 127.67 %, Minimum measured 33.686 %, P-gp concentration 2 uM, P-gp inhibitor Elacidar) of over 5.56 µM and an EC50 (dengue virus type 2; Dengue virus, VeroE6/TMPRSS2) of over 5.56 µM. For the same molecule, the EC90 (dengue virus type 2; Dengue virus, VeroE6/TMPRSS2, Maximum measured 89.147 %, Minimum measured 35.738 %, P-gp concentration 2 uM, P-gp inhibitor Elacidar) was over 5.56 µM.

Molecule `O=C(Nc1cc(Cl)cc(C(=O)Nc2cc(Br)cc(-c3nnn[nH]3)c2)c1)OCc1ccccc1` has an EC50 (Zika virus; Zika virus, VeroE6/TMPRSS2) of 41.4 µM, an EC90 (Zika virus; Zika virus, VeroE6/TMPRSS2, Baseline response 0 %, Hill slope -35.305, Maximum measured 180.813 %, Maximum response 100 %, Minimum measured 13.985 %, P-gp concentration 2 uM, R squared 0.137, P-gp inhibitor Elacidar) of 44.1 µM and an EC50 (dengue virus type 2; Dengue virus, VeroE6/TMPRSS2) of 11.4 µM. The EC90 (dengue virus type 2; Dengue virus, VeroE6/TMPRSS2, Baseline response 0 %, Hill slope -3.68, Maximum measured 234.045 %, Maximum response 186.52 %, Minimum measured 36.837 %, P-gp concentration 2 uM, R squared 0.67, P-gp inhibitor Elacidar) was over 16.7 µM.

Work on `NCCCc1ccnc(NC(=O)c2cc(Cl)cc(NC(=O)OCc3ccccc3)c2)c1` yielded an EC50 (Zika virus; Zika virus, VeroE6/TMPRSS2) of 0.532 µM, an EC90 (Zika virus; Zika virus, VeroE6/TMPRSS2) of 3.24 µM and an EC50 (dengue virus type 2; Dengue virus, VeroE6/TMPRSS2) of over 5.56 µM. The EC90 (dengue virus type 2; Dengue virus, VeroE6/TMPRSS2, Baseline response 0 %, Hill slope -1.225, Maximum measured 82.874 %, Maximum response 60 %, Minimum measured 33.609 %, P-gp concentration 2 uM, R squared 0.331, P-gp inhibitor Elacidar) was over 5.56 µM.

With `O=C(O)CCc1ccc(NC(=O)c2cc(Cl)cc(NC(=O)OCc3ccccc3)c2)cc1` the EC50 (Zika virus; Zika virus, VeroE6/TMPRSS2) was over 50 µM, the EC90 (Zika virus; Zika virus, VeroE6/TMPRSS2, Maximum measured 138.099 %, Minimum measured 61.86 %, P-gp concentration 2 uM, P-gp inhibitor Elacidar) was over 50 µM and the EC50 (dengue virus type 2; Dengue virus, VeroE6/TMPRSS2) was 23.4 µM. The EC90 (dengue virus type 2; Dengue virus, VeroE6/TMPRSS2) was 44.4 µM.

With `N#C[C@H](Nc1cccc(-c2nn[nH]n2)c1)c1cc(Cl)cc(NC(=O)OCc2ccccc2)c1` the EC50 (Zika virus; Zika virus, VeroE6/TMPRSS2) was over 50 µM, the EC90 (Zika virus; Zika virus, VeroE6/TMPRSS2, Maximum measured 138.49 %, Minimum measured 54.48 %, P-gp concentration 2 uM, P-gp inhibitor Elacidar) was over 50 µM and the EC50 (dengue virus type 2; Dengue virus, VeroE6/TMPRSS2) was over 50 µM. The EC90 (dengue virus type 2; Dengue virus, VeroE6/TMPRSS2, Baseline response 0 %, Hill slope -0.37, Maximum measured 135.235 %, Maximum response 100 %, Minimum measured 60.402 %, P-gp concentration 2 uM, R squared 0.119, P-gp inhibitor Elacidar) was over 50 µM.
